{
  "source": "patent US20240189263A1",
  "about": "“DERIVATIZED C60 MOLECULES AND METHODS AND MATERIALS FOR USING DERIVATIZED C60 MOLECULES TO REDUCE RADIATION INJURY” (Mayo Foundation for Medical Education and Research, priority 2021, published 2024)",
  "key": {"HUVEC cells": {"tested_on": "HUVEC cells", "assay": "Seahorse mitochondrial respiration (oxygen consumption rate), HUVEC", "type": "cell-based", "settings": "pretreated 2 hours before 1 Gy 230 MeV proton", "description": "The oxygen consumption rates were assessed in N2A, HUVEC, NIH3T3, and HepG2 cell lines with a Seahorse XFe96 (Agilent Technologies, Santa Clara, CA, USA). Cells were treated with 0 and 1 Gy of 230 MeV proton irradiation. The control plates were run at about the same time post plating. Each cell line was optimized prior to these experiments, and data was presented normalized to cell number plated. The standard mitochondrial stress test was performed using serial injections of oligomycin (1.5 μM), carbonyl cyanide p-(trifluoromethoxy)phenylhydrazone (FCCP, 1 μM), and rotenone/antimycin A mixture (0.5 μM). After injection of oligomycin, which inhibits ATP synthase (complex V), there was a drop in electron flow through the electron transport chain (ETC) and a resultant drop in oxygen consumption rate (OCR) of the cells. Injection of FCCP collapsed the proton gradient and allowed for uninhibited electron flow through the ETC supercomplexes. […] The reserve respiratory capacity was calculated by subtracting the basal respiratory capacity from the maximal respiratory capacity."}, "NIH3T3 cells": {"tested_on": "NIH3T3 cells", "assay": "DNA damage, γH2AX foci immunofluorescence, NIH3T3", "type": "cell-based", "description": "To test the ability of C60-ser to protect against radiation injury, the level of DNA damage in response to radiation was analyzed by measuring γH2AX. The H2AX protein becomes phosphorylated into γH2AX as a result of DNA double strand breaks. This allows for the visualization and quantification of double strand break foci through immunofluorescence analysis. Cells were plated on 8 chamber slides and incubated overnight before C60-ser treatment. Three sets of slides per cell line (to be irradiated with 0, 0.5, and 1 Gy) were prepared, with the top 4 rows used as a control and the bottom 4 rows incubated with 100 μM C60-ser. Cells were incubated with C60-ser for 2 hours before irradiation with a clinical Proteus One proton machine (Ion Beam Applications, Louvain-la-Neuve, Belgium). A 230 MeV mono-energetic unmodulated broad beam of large field size that encompassed all slides containing the cells was used to deliver the 0.5 and 1 Gy doses. White solid water slabs (IBA Dosimetry, Germany) provided the necessary phantom material to place the cells at the desired 8 cm depth with an LET of approximately 1.7 keV/μm. After irradiation, cells were incubated at 37° C. with 5% CO2 for 30 minutes before washing and fixing the cells with 1% formaldehyde. The cells were permeabilized with 1% NP-40 and incubated with 5% BSA to block unspecific antibody bonding. The cells were then incubated with γH2AX primary antibody followed by a secondary antibody. Mounting media containing DAPI was used before applying cover slips and sealing the samples. Cells were imaged on an Olympus IX71 trinocular inverted fluorescence phase contrast microscope with a 40× objective. The resulting images were analyzed by ImageJ, and the foci were counted."}, "N2A cells": {"tested_on": "N2A cells", "assay": "Classic clonogenics survival assay of irradiated cells, N2A", "type": "cell-based", "description": "(§1) A classic clonogenics assay was performed to further test the ability of C60-ser to protect against radiation damage. After irradiation, a fraction of the cells will undergo radiation-induced death, whereas other cells remain metabolically active and are able to undergo a few cycles of mitosis before meeting their endpoint. Since many cells remain metabolically activity, classic toxicity measurements such as an MTT measurement are not able to catch the full effects of radiation damage. In contrast, a classic clonogenics assay, which plates a known number of cells and tracks development of colonies, is able to track the number of cells that maintain their clonogenicity. With increasing radiation doses, the fraction of cells that maintain clonogenicity decrease. Therefore, a successful radioprotectant is able to increase the number of surviving colonies compared to the control at the same radiation doses.\n(§2) N2A, NIH3T3, and HepG2 cells were plated in 35 mm dishes and treated with 100 μM C60-ser for 2 hours prior to washing with PBS and irradiation at 0, 2, 4, and 6 Gy with a 230 MeV proton beam. Following radiation, a known number of cells were re-plated in six well plates and allowed to grow in culture for 8-14 days to allow for colony formation. To account for cell death with higher radiation doses, a larger number of cells were plated with increasing doses received. […]"}, "C57B16 mice": {"tested_on": "C57B16 mice", "assay": "Whole body radiation protection, survival", "type": "in vivo"}, "HepG2 cells": {"tested_on": "HepG2 cells", "assay": "Classic clonogenics survival assay of irradiated cells, HepG2", "type": "cell-based", "description": "as §1, §2"}},
  "data": [
    {"compound": "O=C(NC(CO)CO)C1(C(=O)NC(CO)CO)C23c4c5c6c7c8c4-c4c2c2c9c%10c4C4%11c%12c-%10c%10c%13c%14c%12-c%12c(c-7c7c%15c%12C%14%12C(C(=O)NC(CO)CO)(C(=O)NC(CO)CO)C%12%14c%12c%16c%17c%18c(c%12-%15)C7%12C(C(=O)NC(CO)CO)(C(=O)NC(CO)CO)C6%12c6c-5c5c7c(c6-%18)C%176C(C(=O)NC(CO)CO)(C(=O)NC(CO)CO)C6%12c6c-7c(c-2c2c6-c6c%12c-%16c%14c-%13c6C%106C(C(=O)NC(CO)CO)(C(=O)NC(CO)CO)C926)C513)C84C%11(C(=O)NC(CO)CO)C(=O)NC(CO)CO", "note": "(centres unmarked) [C60-ser, C60-serinol]", "values": [
      {"measurement": "radiation-induced increase in respiratory capacity", "setting": "HUVEC cells", "value": "dampened and, in some cases, reduced to normal or slightly below normal levels"},
      {"measurement": "γH2AX foci vs control", "setting": "NIH3T3 cells; NIH3T3, 100 μM 2 hours before 0.5 Gy proton radiation", "value": "trend towards reduction in total foci formed, but it was not statistically significant"},
      {"measurement": "γH2AX foci vs control", "setting": "NIH3T3 cells; NIH3T3, 100 μM 2 hours before 1 Gy proton radiation", "value": "significant decrease in the number of foci"},
      {"measurement": "γH2AX foci vs control", "setting": "NIH3T3 cells; NIH3T3, 100 μM 2 hours, absence of radiation", "value": "no significant different in foci expression"},
      {"measurement": "fraction of surviving cells", "setting": "N2A cells; 100 μM 2 hours before irradiation", "value": "increased the fraction of surviving cells"},
      {"measurement": "dose enhancement factor (DEF) at 20% surviving fraction", "setting": "N2A cells; 100 μM 2 hours, 0-6 Gy 230 MeV proton, one set of clonogenics", "value": 0.91},
      {"measurement": "protection from whole body x-ray radiation-induced death", "setting": "C57B16 mice; given systemically 12 hours after radiation", "value": "protected mice from whole body x-ray radiation-induced death"},
      {"measurement": "survival over 45 day study", "setting": "C57B16 mice; per os 700 mg/kg 12 hours before 9.5 Gy whole-body x-ray, then 70 mg/kg daily for eight days", "value": 100, "unit": "%"},
      {"measurement": "survival over 45 day study", "setting": "C57B16 mice; per os 700 mg/kg once 12 hours before 9.5 Gy whole-body x-ray", "value": 100, "unit": "%"},
      {"measurement": "fraction of surviving cells", "setting": "HepG2 cells; HepG2, 100 μM 2 hours before irradiation", "value": "increased the fraction of surviving cells"},
      {"measurement": "dose enhancement factor (DEF) at 20% surviving fraction", "setting": "HepG2 cells; HepG2, 100 μM 2 hours, 0-6 Gy 230 MeV proton", "value": "0.88±0.01"}
    ]}
  ]
}
